Holding throughout (assay type): cell-based
Test [1] deals with Trichophyton mentagrophytes. Briefly: In vitro antifungal activity, RPMI and 10% fetal calf serum broth. The text has this: (§1) In those tables, a dash or "N.T." means the material was not tested.
The test system of test [2] is Trichophyton mentagrophytes. Briefly: In vitro antifungal activity, Antibiotic 3 broth (Difco). To be noted: Table 7, read-out: MIC.
Description: as §1

Test [3] relates to Trichophyton mentagrophytes. Briefly: In vitro antifungal activity, Sabouraud's and Dextrose broth.
Description: as §1

Test [4] relates to C38 murine colon solid tumor cell line. Briefly: Disk diffusion soft agar colony formation assay. Conditions: 200 zone units = 6 MM. The method, then:
(§2) The method of performing the disk diffusion soft agar colony […] assay is described in Chapter 3 of Cytotoxic Anticancer Drugs: Models and Concepts for Drug Discovery and Development (Frederick A. Valeriote, et al., eds., 1990). In addition to the procedure taught in this reference, one mL ethanol was added to each dry factor in a vial, and the desired concentration of solution was placed on a paper disk. The disk was dried and then placed on soft agar plates as described in the reference.
C38 = murine colon solid tumor cell line
(§3) ^2 Measurement in zone units; 200 zone units = 6 MM

The test system of test [5] is L1210 murine leukemia cell line. Briefly: Disk diffusion soft agar colony formation assay. Conditions: 200 zone units = 6 MM. Here is the method: as §2
L1210 = murine leukemia cell line
as §3

The subject of test [6] is H8 human colon solid tumor cell line. Briefly: Disk diffusion soft agar colony formation assay. Conditions: 200 zone units = 6 MM. The method, then:
as §2
H8 = human colon solid tumor cell line
as §3
(In general: In agar diffusion tests the substance spreads into inoculated agar from a disc or well.)

Test [7] has as its system Candida albicans. Briefly: In vitro antifungal activity, RPMI and 10% fetal calf serum broth.
Description: as §1

The test system of test [8] is LML "Low Malignancy Line" fibroblast. Briefly: Disk diffusion soft agar colony formation assay. To be noted: 200 zone units = 6 MM. Here is the method: as §2
LML = "Low Malignancy Line" fibroblast
as §3

In test [9] the test system is P03 murine pancreatic solid tumor cell line. Briefly: Disk diffusion soft agar colony formation assay. Conditions: 200 zone units = 6 MM. Here is the method:
as §2
P03 = murine pancreatic solid tumor cell line
as §3

Test [10] concerns Aspergillus fumigatus. Briefly: In vitro antifungal activity, Sabouraud's and Dextrose broth.
Description: as §1

In test [11] the test system is Candida albicans. Described as above.
Description: as §1

Test [12] deals with Mam17 murine mammary solid tumor cell line. Briefly: Disk diffusion soft agar colony formation assay. Conditions: 8 ug per disk, 200 zone units = 6 MM. Here is the method:
as §2
Mam17 = murine mammary solid tumor cell line
as §3

Test [13] has as its system Aspergillus fumigatus. Briefly: In vitro antifungal activity, RPMI and 10% fetal calf serum broth. To be noted: Table 5.
Description: as §1

Test [14] relates to Aspergillus fumigatus. Briefly: In vitro antifungal activity, Antibiotic 3 broth (Difco). Conditions: Table 7.
Description: as §1

Test [15] concerns Candida albicans. Described as above. Conditions: Table 7.
Description: as §1

[16] abbreviates: Table 3, RPMI & 10% Fetal Calf Serum Broth.

Converted amounts (≈) assume the structure as drawn.

As to `Cc1cccc(N(C)C(=S)Oc2ccc3ccccc3c2)c1` [Tolnaftate, reference compound], the minimal inhibitory concentration (MIC) (in general, the lowest concentration that inhibits growth of the organism) was 0.039 µg/mL (≈ 0.127 µM) in [1] (Table 1, RPMI and 10% Fetal Calf Serum Broth, read-out: MIC); below 0.02 µg/mL in [1] (Table 3, RPMI & 10% Fetal Calf Serum Broth, read-out: MIC); 0.02 µg/mL (≈ 0.0651 µM) in test [1] (Table 5, RPMI and 10% Fetal Calf Serum Broth, read-out: MIC); 0.02 µg/mL (≈ 0.0651 µM) in test [2]; 0.039 µg/mL (≈ 0.127 µM) in test [3] (Table 2, read-out: MIC); below 0.02 µg/mL in test [3] (Table 4, read-out: MIC). Also, the MIC in [3] (Table 6, read-out: MIC) was 0.02 µg/mL (≈ 0.0651 µM).

`[C-]#[N+]C12C3OC3C(C)(C)c3[nH]c4cccc5c4c3C1(O)C(CC(Cl)C2(C)C=C)C5(C)C` (centres unmarked) [A89271 F]: the “Measurement in zone units” value was 460 zone units in test [4] (16 ug per disk); 590 zone units in test [4] (20 ug per disk); 550-580 zone units in [4] (80 ug per disk); 500 zone units in [4] (factor line, no dose given); 250-280 zone units in [5] (8 ug per disk); 0-220 zone units in test [5] (16 ug per disk). Also, the “Measurement in zone units” value is recorded as 300-350 zone units in test [5] (20 ug per disk); 350-460 zone units in test [5] (80 ug per disk); 200-250 zone units in [5] (factor line, no dose given); 200-330 zone units in [6] (16 ug per disk); 200-350 zone units in test [6] (20 ug per disk); 200-400 zone units in [6] (80 ug per disk). Besides, the “Measurement in zone units” value in test [6] (factor line, no dose given) is reported as 200-300 zone units; in [8] (8 ug per disk) it was 0-400 zone units; in test [8] (20 ug per disk), 0-80 zone units; in [8] (80 ug per disk), 0-120 zone units; in [9] (16 ug per disk), 440 zone units; in test [9] (factor line, no dose given) it was 500 zone units. Besides, in test [12], the “Measurement in zone units” value is listed as 250 zone units. For the same compound, the MIC in [1] (setting [16]) is 1.25 µg/mL (≈ 2.86 µM); against Candida albicans [7] (setting [16]) it was 1.25 µg/mL (≈ 2.86 µM); in test [3] (Table 4), above 80 µg/mL; in the test with Aspergillus fumigatus [10] (Table 4), above 80 µg/mL; in the test on Candida albicans [11] (Table 4), 1.25 µg/mL (≈ 2.86 µM).

On to `C[C@@H]1[C@H](O)[C@@H](C)/C=C/C=C/C=C/C=C/C=C/C=C/C=C/[C@H](O[C@@H]2O[C@H](C)[C@@H](O)[C@H](N)[C@@H]2O)C[C@@H]2O[C@](O)(C[C@@H](O)C[C@@H](O)[C@H](O)CC[C@@H](O)C[C@@H](O)CC(=O)O[C@H]1C)C[C@H](O)[C@H]2C(=O)O` [Amphotericin B, reference compound], for which the MIC in the test with Aspergillus fumigatus [13] amounted to 1.25 µg/mL (≈ 1.35 µM); against Candida albicans [7] (Table 1, RPMI and 10% Fetal Calf Serum Broth) it was 0.156 µg/mL (≈ 0.169 µM); against Candida albicans [7] (setting [16]), 0.156 µg/mL (≈ 0.169 µM); in the test on Candida albicans [7] (Table 5, RPMI and 10% Fetal Calf Serum Broth), 0.625 µg/mL (≈ 0.676 µM); against Aspergillus fumigatus [14] it was 0.039 µg/mL (≈ 0.0422 µM); with Candida albicans [15], 0.02 µg/mL (≈ 0.0216 µM). For the same compound, the MIC with Aspergillus fumigatus [10] (Table 2) was found to be 1.25 µg/mL (≈ 1.35 µM); in the test on Aspergillus fumigatus [10] (Table 4), 1.25 µg/mL (≈ 1.35 µM); against Aspergillus fumigatus [10] (Table 6), 5.0 µg/mL (≈ 5.41 µM); in the test with Candida albicans [11] (Table 2), 0.625 µg/mL (≈ 0.676 µM); in the test with Candida albicans [11] (Table 4) it was 0.312 µg/mL (≈ 0.338 µM); in the test on Candida albicans [11] (Table 6), 0.312 µg/mL (≈ 0.338 µM).

On to `[C-]#[N+]C12C(O)C(O)C(C)(C)c3[nH]c4cccc5c4c3C1(O)C(CC(Cl)C2(C)C=C)C5(C)C` (centres unmarked) [A89271 D], for which the MIC in test [1] (setting [16]) was 0.625 µg/mL (≈ 1.37 µM); against Candida albicans [7] (setting [16]), 1.25 µg/mL (≈ 2.75 µM); in test [3] (Table 4) it was above 80 µg/mL; in the test on Aspergillus fumigatus [10] (Table 4) it was above 80 µg/mL; against Candida albicans [11] (Table 4), 1.25 µg/mL (≈ 2.75 µM).

On to `[C-]#[N+]C1C(C)(C=C)C(Cl)CC2C(C)(C)c3cccc4[nH]c(C(C)(C)C=C)c(c34)C21O` (centres unmarked) [A89271 C], for which the minimum inhibitory concentration (MIC) in [1] (setting [16]) is 0.625 µg/mL (≈ 1.48 µM); in the test on Candida albicans [7] (setting [16]) it was 1.25 µg/mL (≈ 2.96 µM); in [3] (Table 4), above 80 µg/mL; against Aspergillus fumigatus [10] (Table 4), above 80 µg/mL; against Candida albicans [11] (Table 4) it was 2.5 µg/mL (≈ 5.91 µM).

The values above are taken from patent US5457119A, “A89271 factors and processes for their production” (priority 1994, dated 1995).
